# Values of other authors as cited in US20140017301A1, “DRUG-FREE COMPOSITIONS AND METHODS FOR DIMINISHING PERIPHERAL INFLAMMATION AND PAIN” (priority 2011, published 2014).
# Settings: excipients of Table 3
row,Compound,log P
1,"O=c1[nH]sc2ccccc12 [1,2-benzothiazol-3-one]",1.08
2,"CC1(C)C(=O)N(CO)C(=O)N1CO [1,3-Dimethylol-5,5-dimethylhydantoin]",0.6
3,"Cc1cc(O)c(C)c(C)c1O [2,3,5-trimethylbenzene-1,4-diol]",2.12
4,O=C(O)CNCO [2-(hydroxymethylamino)acetic adic],−2.2
5,"Cn1sccc1=O [2-methyl-1,2-thiazol-3-one]",−0.06
6,"OCC(O)CS (stereo not shown) [3-sulfanylpropane-1,2-diol]",−0.57
7,"CCCCCCOc1cc(C)c(O)c(C)c1C [4-hexoxy-2,3,6-trimethylphenol, HTHQ, 4-hexoxy-2,3,6-trimethylphenol]",4.81
8,"O=[N+]([O-])C1(Br)COCOC1 [5-Bromo-5-nitro-1,3-dioxane, bronidox, 5-Bromo-5-nitro-1,3-dioxane]",0.44
9,"Cc1ccc(C(C)C)c(O)c1 [6-isopropyl-m-cresol; thymol, 6-isopropyl-m-cresol]",3.21
10,"CC(=O)OC1CC(C)OC(C)O1 (stereo not shown) [(2,6-dimethyl-1,3-dioxan-4-yl) acetate]",0.87
11,OCc1ccccc1 [Benzyl alcohol],1.23
12,"CCCCOC(=O)c1ccc(O)cc1 [Butyl 4-hydroxybenzoate; butylparabene, Butyl 4-hydroxybenzoate]",3.07
13,"COc1ccc(O)c(C(C)(C)C)c1 [Butylated hydroxyanisole, BHA, Butylated hydroxyanisole]",3.13
14,CC(=O)C1C(=O)C=C(C)OC1=O (stereo not shown) [Dehydroacetic acid],−0.05
15,"O=C1C(N(CO)C(=O)NCO)N(CO)C(=O)N1CO (stereo not shown) [Diazodinyl Urea (Germall II), Diazodinyl Urea]",−3.2
16,"CCOC(=O)c1ccc(O)cc1 [Ethyl 4-hydroxybenzoate; ethylparabene, Ethyl 4-hydroxybenzoate]",2.16
17,"COC(=O)c1ccc(O)cc1 [Methyl 4-hydroxybenzoate; methylparabene, Methyl 4-hydroxybenzoate]",1.72
18,OCCOc1ccccc1 [Phenoxyethanol],1.26
19,OCCc1ccccc1 [Phenylethanol],1.61
20,"CCCOC(=O)c1ccc(O)cc1 [Propyl 4-hydroxybenzoate; propylparabene, Propyl 4-hydroxybenzoate]",2.63
21,C/C=C/C=C/C(=O)O [Sorbic acid],1.38
22,NC(N)=S [Thiourea],−0.96
23,Benzalkonium,3.67
24,Propanediol,−0.71
25,Tocopherol,9.76
